Experimental findings from ChEMBL document CHEMBL3739270 (Medchemcomm, 2015) are described below.

What all share (assay type): cell-based
Test [1] has as its target Melatonin receptor type 1A (Homo sapiens, UniProt P48039). Kind of test: Displacement of 2-[125I]-iodomelatonin from human melatonin receptor MT1 expressed in CHO cells after 1 hr by gamma counting analysis.
Test [2] addresses T1, Melatonin receptor type 1B (Homo sapiens, UniProt P49286).
T1 sequence (P49286 whole entry): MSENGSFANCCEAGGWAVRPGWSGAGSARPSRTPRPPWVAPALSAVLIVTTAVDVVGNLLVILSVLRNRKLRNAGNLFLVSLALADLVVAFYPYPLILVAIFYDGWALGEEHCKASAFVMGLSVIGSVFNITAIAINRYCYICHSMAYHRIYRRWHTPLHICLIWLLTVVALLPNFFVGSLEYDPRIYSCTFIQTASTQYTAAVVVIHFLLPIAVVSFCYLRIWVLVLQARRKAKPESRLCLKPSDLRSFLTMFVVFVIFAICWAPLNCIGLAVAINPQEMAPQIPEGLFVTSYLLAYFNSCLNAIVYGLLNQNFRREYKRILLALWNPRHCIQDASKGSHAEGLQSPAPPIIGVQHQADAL
As to the kind of experiment: Displacement of 2-[125I]-iodomelatonin from human melatonin receptor MT2 expressed in CHO cells after 1 hr by gamma counting analysis.

Test [3] has as its system CHO-K1. As to the kind of experiment: Selectivity ratio, ratio of Ki for human melatonin receptor MT2 to Ki for human melatonin receptor MT1 expressed in CHO-K1 cells.
Test [4] deals with CHO. Kind of test: Selectivity ratio, ratio of Ki for human melatonin receptor MT2 to Ki for human melatonin receptor MT1 expressed in CHO cells.
In test [5] the test system is HEK293. As to the kind of experiment: Selectivity ratio, ratio of Ki for human melatonin receptor MT2 to Ki for human melatonin receptor MT1 expressed in HEK293 cells.

Chain of Melatonin receptor type 1A (P48039 whole entry): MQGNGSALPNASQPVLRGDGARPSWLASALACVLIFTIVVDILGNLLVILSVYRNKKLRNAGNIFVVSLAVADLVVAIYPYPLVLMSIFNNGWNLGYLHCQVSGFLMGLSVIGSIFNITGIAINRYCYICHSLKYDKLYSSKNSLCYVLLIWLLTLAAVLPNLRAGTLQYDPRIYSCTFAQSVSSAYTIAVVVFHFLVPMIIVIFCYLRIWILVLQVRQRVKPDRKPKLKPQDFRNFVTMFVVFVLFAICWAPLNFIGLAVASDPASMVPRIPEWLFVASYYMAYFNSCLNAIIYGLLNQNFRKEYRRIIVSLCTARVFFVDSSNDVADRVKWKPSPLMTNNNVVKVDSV

`CC(=O)NCCc1cccc2ccc(OCCCCc3ccccc3)cc12`: the Ki in test [1] (read-out: Ki) and in test [2] (read-out: Ki) was 9 nM in each case.
Consider `CC(=O)NCCc1cccc2ccc(OCCCOc3ccccc3)cc12`, for which the Ki was 35 nM in test [1] (read-out: Ki) and 44 nM in test [2] (read-out: Ki).
Take `COc1ccc2cccc(CCNC(=O)C(Cl)Cl)c2c1`: the Ki was found to be 5 nM in test [1] (read-out: Ki) and 2 nM in test [2] (read-out: Ki).
As to `O=C(NCCCc1cccc2nc(CCCCc3ccccc3)oc12)C1CC1`, the Ratio Ki in test [3] was 30.
In the case of `O=C(NCCc1c[nH]c2ccc(OCCCOc3ccccc3)cc12)C(F)F`, the values for the Ki in test [1] (read-out: Ki) and in test [2] (read-out: Ki) were 6.2 nM and 7.8 nM, respectively. In addition, the Ratio Ki in test [4] stood at 10.
Turning to `CC(=O)NCCc1cccc2ccc(OCCCc3ccccc3)cc12`, the Ki in test [1] (read-out: Ki) is 9 nM; in test [1] (read-out: pKi (converted)), 25.1 nM; in test [2] (read-out: Ki), 9 nM; in test [2] (read-out: pKi (converted)), 21.4 nM.
In the case of `O=C(NCCc1cccc2ccc(OCCCCOc3ccc4cccc(CCNC(=O)C(F)F)c4c3)cc12)C(F)F`, the results for the Ki in test [1] (read-out: Ki) and in test [2] (read-out: Ki) were 12 nM and 15 nM, respectively.
Regarding `COc1ccc2cccc(CCNC(=O)C(F)(F)F)c2c1`, the Ki was found to be 5 nM in test [1] (read-out: Ki) and 2 nM in test [2] (read-out: Ki).
In the case of `O=C(NCCc1cccc2ccc(OCCCOc3ccc4cccc(CCNC(=O)C(F)F)c4c3)cc12)C(F)F`, the Ki in test [1] (read-out: Ki) came out at 1.2 nM; in test [2] (read-out: Ki), 8.1 nM. The Ratio Ki in test [4] was 7.
Regarding `CCCCCCOc1ccc2c(c1)C(CCNC(C)=O)CCO2` (stereo not drawn), the Ratio Ki in test [3] is 30.
`CC(=O)NCCc1cccc2ccc(OCCCOc3ccc4cccc(CCNC(C)=O)c4c3)cc12`: the Ki was 112 nM in test [1] (read-out: Ki) and 355 nM in test [2] (read-out: pKi (converted)).
With `CC(=O)NCCc1cccc2ccc(OCCCCOc3ccc4cccc(CCNC(C)=O)c4c3)cc12`, the Ratio Ki in test [5] amounted to 120.
Consider `COc1ccc2cccc(CCNC(=O)C(F)F)c2c1`, for which the figures for the Ki in test [1] (read-out: Ki) and in test [2] (read-out: Ki) were 0.054 nM and 0.85 nM, respectively. The Ratio Ki in test [4] came to 16.
